Publication PMC7248381, “Structure and Characterization of a Covalent Inhibitor of Src Kinase” (Frontiers in Molecular Biosciences, 2020)

Columns and labels:
Src kinase = Src kinase (Homo sapiens, UniProt P12931); assay: Src enzymatic activity, mobility shift assay (MSA)
Experimental: Here, we evaluated the relative potency of inhibitors on Src enzymatic activity using a mobility shift assay (MSA), which measures phosphorylation of a peptide substrate of Src. […] The kinase reaction buffer consisted of 100 mM Hepes, pH 7.3, 0.015% Brij-35, 0.004% Tween-20, and 10 mM MgCl2. […] The percent conversion was determined by EZReader 3.0 software and analyzed using GraphPad software version 7 (La Jolla, California, USA) for determination of IC50 values.

[1] = design: method as in earlier work; details: comparison values, ref Gierse et al., 1999, Papp-Wallace et al., 2014, Schwartz et al.; cited from earlier work

Src kinase, sequence (P12931 254-536): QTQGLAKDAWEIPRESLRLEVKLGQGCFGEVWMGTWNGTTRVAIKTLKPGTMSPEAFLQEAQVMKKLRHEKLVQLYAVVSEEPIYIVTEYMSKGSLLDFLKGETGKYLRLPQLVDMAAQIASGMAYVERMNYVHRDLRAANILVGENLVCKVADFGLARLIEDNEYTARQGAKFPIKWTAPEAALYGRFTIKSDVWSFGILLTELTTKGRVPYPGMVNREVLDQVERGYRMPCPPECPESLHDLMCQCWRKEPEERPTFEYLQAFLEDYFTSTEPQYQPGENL

IC50 (Src kinase) [nM] | SMILES | inactivation rate constant (kinact) [1] [s⁻¹]
26.6 | C=CC(=O)Nc1ccccc1Nc1nc(Nc2ccc(N3CCN(C)CC3)cc2)ncc1Cl [SM1-71] | 
 | CN(C)C/C=C/C(=O)Nc1cc2c(Nc3ccc(F)c(Cl)c3)ncnc2cc1O[C@H]1CCOC1 [afatinib] | 0.001
 | CCOc1cc2ncc(C#N)c(Nc3ccc(OCc4ccccn4)c(Cl)c3)c2cc1NC(=O)/C=C/CN(C)C [neratinib] | 0.002
